# Experimental data: patent US3987055A, “Azasteroids compounds and derivatives” (The Board of Regents for the Oklahoma Agricultural & …, priority 1974, dated 1976)
# Several values for one entry are separate records, joined by “and”; a condition that tells them apart may be missing. Identical values can stand only once. Entries after “also recorded” stand apart in the source; their conditions may differ.
# How the values were obtained:
# [1] = cited from earlier work
# [2] = test system: Bacillus subtilis; settings: as low as; cited from earlier work
# [3] = oral, rats; cited from earlier work
# [4] = test system: Bacillus subtilis W23; test: inhibition of growth of Bacillus subtilis W23 in growth medium; assay type: cell-based
# Experimental: (§1) The hydroxybenzindazole (compound 2) delayed (inhibited) the initiation of growth of selected unrelated bacteria when incorporated in the growth medium. The inhibition was dependent on the concentration of the test compound and the nature of the organism. […] Pseudomonas fluorescens NND was not sensitive to the hydroxybenzindazole in the concentrations tested.
# The influence of cell mass on the antimicrobial potential of the hydroxybenzindazole was determined using B. subtilis W23. […] Thus, a critical number of molecules must react with the cell to produce inhibition. Experiments were conducted to determine if Mg^+^+, which is an important component of cell membranes, affected the inhibition. Cells of B. subtilis W23 were exposed to 10^-^3 M MgCl2 simultaneously with the test compound or for as long as 15 minutes prior to addition of the hydroxybenzindazole.
# [5] = test system: Escherichia coli B; test: inhibition of initiation of growth of Escherichia coli B; assay type: cell-based; settings: E. coli B
# Text: as §1
# [6] = test system: Pseudomonas fluorescens NND; test: inhibition of growth of Pseudomonas fluorescens NND; assay type: cell-based; settings: concentrations tested; P. fluorescens NND; listed as hydroxybenzindazole
# Text: as §1
# [7] = test system: P. fluorescens NND; test: lysis of cells of P. fluorescens NND; assay type: cell-based, Pseudomonas fluorescens NND
# Experimental: The increased lytic rate was not observed when the benzindazole was added after the cells had reached the maximum stationary phase (10 hours); thus, the compounds must be present during active growth for the cells to show the lytic response. […] This is extremely important in controlling or destroying growth of undesirable cells since if the cells rupture they cannot possibly grow and divide at any future time.
# [8] = test system: B. subtilis W23; test: antimicrobial activity in combination with selected antibiotics; assay type: cell-based
# Experimental: Several antibiotics act at the cell surface. The antimicrobial activity of the hydroxybenzindazole in combination with selected antibiotics was measured.
# Both Polymyxin (Pfizer, Inc.) and Circulin (Upjohn Co.) are surface active compounds thought to cause disorganization of the cell membrane leading to a loss of intracellular components. The enhanced antimicrobial activity observed with the combination of hydroxybenzindazole and antibiotics denotes a more pronounced distortion in the cell surface. Thus, much lower concentrations of the compounds can be used in medicinal applications providing an opportunity for toxic compounds to have greater medicinal applicability and use.
# Failure of the mixture of hydroxybenzindazole and chloramphenicol to show an enhanced inhibition of growth could be correlated with the internal site of action of chloramphenicol, which is blockage of the binding of the 30s and 50s ribosomal subunits.
# [9] = test system: cells; test: binding or adsorption to the cell; settings: incubated with 20 μg
# Text: (§2) Thus the compound can be used to destroy undesirable cells without damaging normal cells.
# [10] = test system: cells; test: uptake or incorporation of L-serine-3-14C or uracil-2-14C; assay type: cell-based; settings: 60 μg/ml
# Text: as §2
# [11] = test system: osmoplasts (osmotically sensitive cells) of B. subtilis W23; test: lysis of osmoplasts of B. subtilis W23; assay type: cell-based; settings: stabilized in 0.35 M sucrose
# Text: as §2
# [12] = effects on testis function: body, testis and seminal vesicle weight; assay type: in vivo, mice (ICR-Swiss adult male); settings: average; 0.2 mg per day s.c., 10 days
# Experimental: The compounds as shown in Table 7 were dissolved in a minimal amount of ethanol and diluted in sesame oil (1 mg/ml). After dilution, samples were stored at 5° C in the dark and flushed with N2 every 24 hours. The compounds were injected subcutaneously into adult male mice for a period of 10 days. Each mouse injected received a total dose of 2 mg over the 10 day period or 0.2 mg per day. The mice were random bred males of the ICR-Swiss strain and were used in the study when they reached 75±2 days of age. Mice were maintained in air-conditioned and light-controlled (14 hour light/24 hour) animal quarters and provided with lab food and water ad libitum. Animals were necropsied 24 hours after the last injection. Testes and seminal vesicles were excised, trimmed of adhering tissue and weighed fresh at the nearest one-tenth milligram.
# [13] = test system: rat testis tubules; test: glucose oxidation (glucose-U-14C) by rat testis tubules in vitro; assay type: cell-based
# Experimental: (§3) For these investigations the compounds were diluted in a minimal amount of ethanol and further diluted in saline (0.85%) so that the final concentration was 1 mg/ml. The compounds were placed in solution and gassed under N2 and stored at 5° C until used 2 days later for the in vitro incubation studies. Details of the in vitro incubation procedures may be found in Endocrinology 89:791-800 (1971).
# The effects of these compounds on glucose oxidation by testis tubules was examined by incubating about 200 mg of teased testis tubules from mature rats in a 25 ml Erlenmeyer flask containing 3 ml of Krebs Ringer bicarbonate buffer (pH 7.4), D-glucose-U-^14 C (0.5 μCi; 10mM) and 0.25 ml of the azasteroid (1 mg/ml) to be tested. The flasks were incubated for 2 hours at 33° C under 95% O2 :5% CO2. The reaction was terminated by adding 0.25 ml of 5 N H2 SO4. Carbon dioxide was trapped in 0.25 ml of hydroxide of Hyamine. The radioactivity present in the Hyamine was determined by liquid scintillation spectrometry. This table includes a detailed summary of the results obtained and an average for each compound. […] Thus, the compounds have potential for antifertility activity in the control of wild rodent populations and possibly stray animals such as dogs and cats.
# CPM = counts per minute. Glucose-U-^14 C activity was 0.5 millicurie.
# All compounds were tested in a concentration of 250 mg per flask.
# [14] = test system: rat testis tubules; test: lysine-U-14C incorporation into protein by rat testis tubules in vitro; assay type: cell-based
# Experimental: as §3
# The effects of the compounds on the incorporation of lysine -U-^14 C into trichloroacetic (TCA) precipitable protein of rat testes was investigated by incubating about 200 mg of teased testis tubules from mature rats in a 25 ml Erlenmeyer flask containing 3 ml of Krebs Ringer bicarbonate buffer (pH 7.4), L-lysine-U-^14 C (0.5 μCi; 0.1mM), glucose (10 mM) and 0.25 ml of the azasteroid to be tested. The flasks were incubated for 1 hour at 33° C under 95% O2 : 5% CO2 and the TCA precipitable protein was isolated and an aliquot used to measure radioactivity.
# CPM = counts per minute. All compounds were tested in a concentration of […]
# [15] = cited from earlier work; remark: listed apart in the source
# [16] = individual flask, 250 mg per flask (so in the source), 2 hours, 33° C
# [17] = individual flask, 250 mg per flask (so in the source), 1 hour, 33° C
compound,measurement,setting,value
COc1ccc2c(c1)CC[C@@H]1[C@@H]2CC[C@]2(C)C(=O)NC[C@@H]12 [0-methyl ether of 16-azaestrone],estrogenic activity relative to parent estrone,[1],less than 1.01%
CC(C)CCC[C@@H](C)[C@H]1CC[C@H]2[C@@H]3CC=C4N(CC[N+](C)(C)C)C(=O)CC[C@]4(C)[C@H]3CC[C@]12C [4-Dimethylaminoethyl-4-aza-5-cholesten-3-one methiodide],concentration that irreversibly inhibits growth of Bacillus subtilis cultures,[2],1 µg/mL
"C[C@]12Cc3cn[nH]c3C[C@@H]1CC[C@@H]1[C@@H]2CC[C@@]2(C)[C@H]1CC[C@]2(C)O [17-Hydroxy-17 α-methylandrostano[3,2]-μ pyrazole]",antiovulatory activity relative to norethisterone,[3],one-fifth of that observed for norethisterone
"Oc1ccc2c(c1)CCc1cn[nH]c1-2 [Compound 2, 4,5-Dihydro-1H-benz[g]indazol-7-ol]",growth inhibition at lower concentration,"[4]; 46 μg/ml, B. subtilis W23",only slight inhibition
same,increased lag in the initiation of growth,"[4]; 86 μg/ml, B. subtilis W23",approximately 3 hours
same,influence of Mg++ on the inhibition,"[4]; 10^-3 M MgCl2, simultaneously or up to 15 minutes prior",did not influence the inhibition
same,influence of cell mass on extent of inhibition,"[4]; B. subtilis W23, increasing inoculum cell mass",the extent of inhibition was diminished as the cell mass of the inoculum was increased
same,growth inhibition at lower concentration,[5]; 46 μg/ml,only slight inhibition
same,increased lag in the initiation of growth,[5]; 86 μg/ml,approximately 3 hours
same,sensitivity / influence on growth,[6],not sensitive; also recorded: did not influence the growth
same,dependence of extent of lysis on concentration,[7]; P. fluorescens NND,proportional to the benzindazole concentration
same,increased lytic rate when added after maximum stationary phase,[7]; added after 10 hours,not observed
same,cell population lysed,[7]; cells grown in presence of compound,approximately 95%
same,"inhibition of growth, tested separately","[8]; alone, B. subtilis W23",very slight inhibition of growth
same,enhanced inhibition in combination with chloramphenicol,[8]; with chloramphenicol,enhanced inhibition was not observed
same,inhibition of growth in combination with penicillin,"[8]; with penicillin, B. subtilis W23",pronounced inhibition
same,amount bound or adsorbed to the cell,[9],approximately 1 μg
same,inhibition of uptake or incorporation of L-serine-3-14C or uracil-2-14C,[10],did not inhibit uptake or incorporation
same,lysis of osmoplasts,[11],did not produce lysis
same,Body Weight,[12],35.7 g
same,Mg Testes Per g Body Wt.,[12],6.73 Mg per g
same,Seminal Vesicle weight,[12],87.3 mg
same,Testes Paired weight,[12],242.0 mg
same,AVERAGE glucose oxidation,[13]; average of flasks,"3,756 CPM/100 mg TISSUE"
same,depression of glucose oxidation in vitro,[13]; in words,depressed glucose oxidation in vitro more than compounds 4 c and 11b
same,GLUCOSE OXIDATION per 100 mg,[13]; [16],"3,354 CPM/100 mg and 4,159 CPM/100 mg"
same,GLUCOSE OXIDATION per flask,[13]; [16],"6,876 CPM/FLASK and 8,557 CPM/FLASK"
same,"% DEVIATION FROM CONTROL, glucose oxidation","[13]; versus saline, 120 min",-63.6%
same,AVERAGE OF TWO FLASK lysine incorporation,[14]; average of two flasks,814 CPM/100 mg tissue
same,protein synthesis by teased testis tubules,[14]; in words,depress protein synthesis
same,lysine incorporation into protein per 100 mg,[14]; [17],"1,000 CPM/100 mg and 629 CPM/100 mg"
same,lysine incorporation into protein per flask,[14]; [17],"2,000 CPM/FLASK and 1,200 CPM/FLASK"
"(3,2-c)-2'-phenylpyrazole of 9α-fluoro-6,16α-dimethyl-Δ^6 -hydrocortisone",anti-inflammatory potency relative to hydrocortisone,[15],over 2000 times
